According to PubChem BioAssay (NCI):
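Cells were grown in 96-well plates and exposed to each compound for 48 hours at five concentrations; endpoints were interpolated linearly between bracketing concentrations, or set to the highest concentration if not reached. GI50 = concentration required for 50% inhibition of growth. The concentration for full growth arrest is given as TGI.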

Tests used:
Assay in all cases: NCI anticancer screen, dose series, 48 h
COLO 205 colon = tested on: COLO 205 colon
SF-539 CNS = tested on: SF-539 CNS
OVCAR-5 ovarian = tested on: OVCAR-5 ovarian
BT-549 breast = tested on: BT-549 breast
SNB-19 CNS = tested on: SNB-19 CNS
OVCAR-4 ovarian = tested on: OVCAR-4 ovarian
HCT-15 colon = tested on: HCT-15 colon
PC-3 prostate = tested on: PC-3 prostate
NCI-H460 lung = tested on: NCI-H460 lung
MALME-3M melanoma = tested on: MALME-3M melanoma
NCI-H23 lung = tested on: NCI-H23 lung
OVCAR-3 ovarian = tested on: OVCAR-3 ovarian
UO-31 renal = tested on: UO-31 renal
SK-MEL-5 melanoma = tested on: SK-MEL-5 melanoma
KM12 colon = tested on: KM12 colon
K-562 leukemia = tested on: K-562 leukemia
DU-145 prostate = tested on: DU-145 prostate
SF-295 CNS = tested on: SF-295 CNS
786-0 renal = tested on: 786-0 renal
IGROV1 ovarian = tested on: IGROV1 ovarian
SK-MEL-2 melanoma = tested on: SK-MEL-2 melanoma
HCC-2998 colon = tested on: HCC-2998 colon
RXF 393 renal = tested on: RXF 393 renal
MOLT-4 leukemia = tested on: MOLT-4 leukemia
NCI-H226 lung = tested on: NCI-H226 lung
HOP-62 NSCLC = tested on: HOP-62 NSCLC
OVCAR-8 ovarian = tested on: OVCAR-8 ovarian
MDA-MB-231 breast = tested on: MDA-MB-231 breast
A498 renal = tested on: A498 renal
HS 578T breast = tested on: HS 578T breast
SF-268 CNS = tested on: SF-268 CNS
EKVX NSCLC = tested on: EKVX NSCLC
MDA-MB-435 = tested on: MDA-MB-435
RPMI-8226 leukemia = tested on: RPMI-8226 leukemia
SK-OV-3 ovarian = tested on: SK-OV-3 ovarian
UACC-62 melanoma = tested on: UACC-62 melanoma
HOP-92 NSCLC = tested on: HOP-92 NSCLC
ACHN renal = tested on: ACHN renal
CCRF-CEM leukemia = tested on: CCRF-CEM leukemia
UACC-257 melanoma = tested on: UACC-257 melanoma
SNB-75 CNS = tested on: SNB-75 CNS
A549 NSCLC = tested on: A549 NSCLC
HL-60(TB) leukemia = tested on: HL-60(TB) leukemia
SK-MEL-28 melanoma = tested on: SK-MEL-28 melanoma
M14 melanoma = tested on: M14 melanoma
TK-10 renal = tested on: TK-10 renal
CAKI-1 renal = tested on: CAKI-1 renal
NCI/ADR-RES ovarian = tested on: NCI/ADR-RES ovarian
MCF7 breast = tested on: MCF7 breast
T-47D breast = tested on: T-47D breast
LOX IMVI melanoma = tested on: LOX IMVI melanoma
HCT-116 colon = tested on: HCT-116 colon
NCI-H522 lung = tested on: NCI-H522 lung
HT29 colon = tested on: HT29 colon
SN12C renal = tested on: SN12C renal
U251 CNS = tested on: U251 CNS
SW-620 colon = tested on: SW-620 colon

## COc1ccc(CN2C(=O)/C(=C\C(=O)c3ccc(OCCN4CCCC4)cc3)c3ccccc32)cc1
COLO 205 colon
  GI50: 2.28 µM
  TGI: 5.52 µM
SF-539 CNS
  GI50: 1.82 µM
  TGI: 3.75 µM
OVCAR-5 ovarian
  GI50: 1.78 µM
  TGI: 4.76 µM
BT-549 breast
  GI50: 10.6 µM
  TGI: 23.3 µM
SNB-19 CNS
  GI50: 3.83 µM
  TGI: 15.1 µM
OVCAR-4 ovarian
  GI50: 2.18 µM
  TGI: 5.44 µM
HCT-15 colon
  GI50: 1.65 µM
  TGI: 3.24 µM
PC-3 prostate
  GI50: 2.35 µM
  TGI: 4.83 µM
NCI-H460 lung
  GI50: 2.03 µM
  TGI: 3.8 µM
MALME-3M melanoma
  GI50: 1.75 µM
  TGI: 3.35 µM
NCI-H23 lung
  GI50: 10.9 µM
  TGI: 36.5 µM
OVCAR-3 ovarian
  GI50: 1.8 µM
  TGI: 3.48 µM
UO-31 renal
  GI50: 1.66 µM
  TGI: 3.11 µM
SK-MEL-5 melanoma
  GI50: 16.2 µM
  TGI: 38.8 µM
KM12 colon
  GI50: 11.1 µM
  TGI: 34.7 µM
K-562 leukemia
  GI50: 2.05 µM
  TGI: 6.03 µM
DU-145 prostate
  GI50: 2.32 µM
  TGI: 5.65 µM
SF-295 CNS
  GI50: 14.8 µM
  TGI: 36.8 µM
786-0 renal
  GI50: 1.68 µM
  TGI: 3.19 µM
IGROV1 ovarian
  GI50: 1.99 µM
  TGI: 3.78 µM
SK-MEL-2 melanoma
  GI50: 17.1 µM
  TGI: 37.4 µM
HCC-2998 colon
  GI50: 2.6 µM
  TGI: 6.12 µM
RXF 393 renal
  GI50: 1.95 µM
  TGI: 3.66 µM
MOLT-4 leukemia
  GI50: 2.91 µM
  TGI: 7.11 µM
NCI-H226 lung
  GI50: 20.8 µM
  TGI: 52.9 µM
HOP-62 NSCLC
  GI50: 20.8 µM
  TGI: 43.9 µM
OVCAR-8 ovarian
  GI50: 2.66 µM
  TGI: 5.78 µM
MDA-MB-231 breast
  GI50: 2.17 µM
  TGI: 4.44 µM
A498 renal
  GI50: 18.1 µM
  TGI: 38.7 µM
HS 578T breast
  GI50: 14.3 µM
  TGI: 54.6 µM
SF-268 CNS
  GI50: 13.2 µM
  TGI: 42.7 µM
EKVX NSCLC
  GI50: 11.3 µM
  TGI: 34.2 µM
MDA-MB-435
  GI50: 1.81 µM
  TGI: 3.74 µM
RPMI-8226 leukemia
  GI50: 2.54 µM
  TGI: 6.29 µM
SK-OV-3 ovarian
  GI50: 18.6 µM
  TGI: 34 µM
UACC-62 melanoma
  GI50: 1.84 µM
  TGI: 3.38 µM
HOP-92 NSCLC
  GI50: 2.09 µM
  TGI: 4.9 µM
ACHN renal
  GI50: 1.66 µM
  TGI: 3.02 µM
CCRF-CEM leukemia
  GI50: 3.34 µM
  TGI: 32.2 µM
UACC-257 melanoma
  GI50: 20.2 µM
  TGI: 40.3 µM
SNB-75 CNS
  GI50: 14.2 µM
  TGI: 30.9 µM
A549 NSCLC
  GI50: 13.2 µM
  TGI: 36.2 µM
HL-60(TB) leukemia
  GI50: 2.61 µM
  TGI: 6.7 µM
SK-MEL-28 melanoma
  GI50: 1.79 µM
  TGI: 3.42 µM
M14 melanoma
  GI50: 2.25 µM
  TGI: 5.34 µM
TK-10 renal
  GI50: 1.74 µM
  TGI: 3.33 µM
CAKI-1 renal
  GI50: 11.8 µM
  TGI: 27 µM
NCI/ADR-RES ovarian
  GI50: 5.71 µM
  TGI: 47.7 µM

## CN1CCN(Cc2ccc(NC(=O)c3cncc(C#Cc4c(N)ncc5c(F)cccc45)c3)cc2C(F)(F)F)CC1
COLO 205 colon
  GI50: 0.638 µM
  TGI: 1.42 µM
MCF7 breast
  GI50: 0.55 µM
  TGI: 1.31 µM
SF-539 CNS
  GI50: 0.593 µM
  TGI: 1.22 µM
OVCAR-5 ovarian
  GI50: 0.794 µM
  TGI: 1.56 µM
BT-549 breast
  GI50: 1.64 µM
  TGI: 4.32 µM
T-47D breast
  GI50: 1.94 µM
  TGI: 6.38 µM
LOX IMVI melanoma
  GI50: 0.646 µM
  TGI: 1.35 µM
SNB-19 CNS
  GI50: 0.867 µM
  TGI: 1.59 µM
OVCAR-4 ovarian
  GI50: 0.503 µM
  TGI: 1.25 µM
HCT-15 colon
  GI50: 0.6 µM
  TGI: 1.3 µM
PC-3 prostate
  GI50: 0.787 µM
  TGI: 1.6 µM
NCI-H460 lung
  GI50: 0.803 µM
  TGI: 1.57 µM
MALME-3M melanoma
  GI50: 0.443 µM
  TGI: 1.23 µM
NCI-H23 lung
  GI50: 0.804 µM
  TGI: 1.69 µM
OVCAR-3 ovarian
  GI50: 0.828 µM
  TGI: 1.53 µM
UO-31 renal
  GI50: 0.712 µM
  TGI: 1.42 µM
SK-MEL-5 melanoma
  GI50: 0.841 µM
  TGI: 1.55 µM
KM12 colon
  GI50: 0.0133 µM
  TGI: 0.65 µM
K-562 leukemia
  GI50: 0.005 µM
  TGI: 0.738 µM
DU-145 prostate
  GI50: 0.832 µM
  TGI: 1.52 µM
SF-295 CNS
  GI50: 0.89 µM
  TGI: 1.77 µM
786-0 renal
  GI50: 0.873 µM
  TGI: 1.62 µM
IGROV1 ovarian
  GI50: 0.726 µM
  TGI: 1.61 µM
HCT-116 colon
  GI50: 0.517 µM
  TGI: 1.2 µM
SK-MEL-2 melanoma
  GI50: 0.809 µM
  TGI: 1.93 µM
HCC-2998 colon
  GI50: 0.821 µM
  TGI: 1.56 µM
RXF 393 renal
  GI50: 0.799 µM
  TGI: 1.54 µM
MOLT-4 leukemia
  GI50: 0.57 µM
  TGI: 1.5 µM
NCI-H226 lung
  GI50: 0.689 µM
  TGI: 3.38 µM
HOP-62 NSCLC
  GI50: 1.28 µM
  TGI: 3.87 µM
OVCAR-8 ovarian
  GI50: 0.988 µM
  TGI: 2.24 µM
MDA-MB-231 breast
  GI50: 0.522 µM
  TGI: 1.17 µM
NCI-H522 lung
  GI50: 0.75 µM
  TGI: 1.66 µM
A498 renal
  GI50: 0.763 µM
  TGI: 1.55 µM
HS 578T breast
  GI50: 0.812 µM
  TGI: 2.18 µM
SF-268 CNS
  GI50: 0.741 µM
  TGI: 1.61 µM
EKVX NSCLC
  GI50: 0.732 µM
  TGI: 1.46 µM
MDA-MB-435
  GI50: 0.597 µM
  TGI: 1.24 µM
RPMI-8226 leukemia
  GI50: 0.991 µM
  TGI: 2.37 µM
SK-OV-3 ovarian
  GI50: 2.14 µM
  TGI: 7.45 µM
HT29 colon
  GI50: 0.305 µM
  TGI: 1.08 µM
UACC-62 melanoma
  GI50: 0.845 µM
  TGI: 1.81 µM
HOP-92 NSCLC
  GI50: 0.135 µM
  TGI: 0.858 µM
SN12C renal
  GI50: 0.743 µM
  TGI: 1.43 µM
ACHN renal
  GI50: 0.708 µM
  TGI: 1.36 µM
UACC-257 melanoma
  GI50: 0.854 µM
  TGI: 1.76 µM
SNB-75 CNS
  GI50: 0.827 µM
  TGI: 1.55 µM
A549 NSCLC
  GI50: 0.794 µM
  TGI: 1.56 µM
U251 CNS
  GI50: 0.725 µM
  TGI: 1.42 µM
HL-60(TB) leukemia
  GI50: 0.33 µM
  TGI: 1.22 µM
SK-MEL-28 melanoma
  GI50: 0.831 µM
  TGI: 1.56 µM
SW-620 colon
  GI50: 0.454 µM
  TGI: 1.16 µM
M14 melanoma
  GI50: 0.388 µM
  TGI: 1.17 µM
TK-10 renal
  GI50: 0.951 µM
  TGI: 1.71 µM
CAKI-1 renal
  GI50: 0.86 µM
  TGI: 1.61 µM
